Target: Angiotensin-converting enzyme (ACE1)
Assay: Concentration required for 50% inhibition of Angiotensin I converting enzyme

Compound | IC50
CCCC(C(=O)O)N1CCCC(CSC(C)=O)C1=O (configuration not stated) [2-(3-Acetylsulfanylmethyl-2-oxo-piperidin-1-yl)-pentanoic acid] | 30 µM
CC(=O)SCC1CCCN(CC(=O)O)C1=O (configuration not stated) [(3-Acetylsulfanylmethyl-2-oxo-piperidin-1-yl)-acetic acid] | 100 µM
O=C(O)CN1CCCC(CS)C1=O (configuration not stated) [(3-Mercaptomethyl-2-oxo-piperidin-1-yl)-acetic acid] | 1 µM
CC(=O)SCC1CCCN(C(C(=O)O)c2ccccc2)C1=O (configuration not stated) [(3-Acetylsulfanylmethyl-2-oxo-piperidin-1-yl)-phenyl-acetic acid] | 19 µM
CC(=O)SCC1CCCN(C(C)C(=O)O)C1=O (configuration not stated) [2-(3-Acetylsulfanylmethyl-2-oxo-piperidin-1-yl)-propionic acid] | 35 µM
CC(=O)SCC1CCN(CC(=O)O)C1=O (configuration not stated) [(3-Acetylsulfanylmethyl-2-oxo-pyrrolidin-1-yl)-acetic acid] | 33 µM
O=C(O)CN1CCC(CS)C1=O (configuration not stated) [(3-Mercaptomethyl-2-oxo-pyrrolidin-1-yl)-acetic acid] | 3.7 µM

— BindingDB's records for doi:10.1021/jm00133a021 (1981)
